Reference: patent US8592448B2 (OSI Pharmaceuticals, LLC, priority 2008, dated 2013)

Assays:
MKN45 cells = assay: MKN45 cell proliferation assay (CellTiter-Glo); assay type: cell-based; details: Homo sapiens, MKN-45, 72 h, MKN45 cell line, 3 days incubation, at least duplicate experiments, read-out: Prolif. IC50
Protocol: The effect of inhibitors on the proliferation of MKN45 cells was determined using the following protocol. MKN45 cells were plated in Corning 3917 96-well white tissue culture treated plates in growth medium (RPMI, 10% FCS) at a density of 5000 cells/well in a total volume of 135 μL and incubated at 37° C., 5% CO2, 95% humidity overnight. The following day, one-tenth volume of a 10× concentration of compounds was added to the wells in an 8-point dilution series. The dilution series was composed of an initial 1:5 dilution of a 10 mM stock of compound in DMSO, followed by serial 1:4 dilutions in DMSO, then a 1:20 dilution in growth medium prior to the 1:10 dilution into the cell plate. Final DMSO concentration on the cells was 0.1%, there were control wells treated with both 0.1% DMSO and no DMSO. The typical dilution range is 10 μM to 0.6 nM. Once the compound was added to the cells, plates were incubated for 3 days at 37° C., 5% CO2 at 95% humidity. On the third day, after allowing all cells and reagents to come to room temperature, 25 μL of CellTiter-Glo reagent (Promega # G7573) was added to the wells. Plates were shaken on a platform for 10 minutes prior to reading luminescence for 0.1 seconds. The signal of the control wells was taken as 100% growth and growth inhibition was expressed as percent of control. IC50 values were determined from the percent of control data using a standard four-parameter model.
(§1) The IC50 values of exemplary compounds of the present invention determined in a cell proliferation assay using the MKN45 cell line according to the procedures described herein in at least duplicate experiments are abbreviated as follows and are shown in Table 2: A, IC50≦0.1 μM; B, 0.1 μM<IC50≦1 μM; C, 1 μM<IC50≦10 μM; D, IC50>10 μM; ND, not determined. The Example # of Table 2 corresponds to the compound example number as illustrated in the Examples section.

phosphorylated c-MET = target: T1, phosphorylated c-MET (Homo sapiens, UniProt P08581); assay: c-MET cell mechanistic assay (phosphorylated c-MET in MKN45 cells); assay type: cell-based; details: MKN45 cell line, four hours incubation, phosphorylated c-MET levels, at least duplicate experiments; read-out: Met mech IC50
T1 construct: endogenous in cells; host or cells: MKN45
T1 sequence (P08581 25-1390): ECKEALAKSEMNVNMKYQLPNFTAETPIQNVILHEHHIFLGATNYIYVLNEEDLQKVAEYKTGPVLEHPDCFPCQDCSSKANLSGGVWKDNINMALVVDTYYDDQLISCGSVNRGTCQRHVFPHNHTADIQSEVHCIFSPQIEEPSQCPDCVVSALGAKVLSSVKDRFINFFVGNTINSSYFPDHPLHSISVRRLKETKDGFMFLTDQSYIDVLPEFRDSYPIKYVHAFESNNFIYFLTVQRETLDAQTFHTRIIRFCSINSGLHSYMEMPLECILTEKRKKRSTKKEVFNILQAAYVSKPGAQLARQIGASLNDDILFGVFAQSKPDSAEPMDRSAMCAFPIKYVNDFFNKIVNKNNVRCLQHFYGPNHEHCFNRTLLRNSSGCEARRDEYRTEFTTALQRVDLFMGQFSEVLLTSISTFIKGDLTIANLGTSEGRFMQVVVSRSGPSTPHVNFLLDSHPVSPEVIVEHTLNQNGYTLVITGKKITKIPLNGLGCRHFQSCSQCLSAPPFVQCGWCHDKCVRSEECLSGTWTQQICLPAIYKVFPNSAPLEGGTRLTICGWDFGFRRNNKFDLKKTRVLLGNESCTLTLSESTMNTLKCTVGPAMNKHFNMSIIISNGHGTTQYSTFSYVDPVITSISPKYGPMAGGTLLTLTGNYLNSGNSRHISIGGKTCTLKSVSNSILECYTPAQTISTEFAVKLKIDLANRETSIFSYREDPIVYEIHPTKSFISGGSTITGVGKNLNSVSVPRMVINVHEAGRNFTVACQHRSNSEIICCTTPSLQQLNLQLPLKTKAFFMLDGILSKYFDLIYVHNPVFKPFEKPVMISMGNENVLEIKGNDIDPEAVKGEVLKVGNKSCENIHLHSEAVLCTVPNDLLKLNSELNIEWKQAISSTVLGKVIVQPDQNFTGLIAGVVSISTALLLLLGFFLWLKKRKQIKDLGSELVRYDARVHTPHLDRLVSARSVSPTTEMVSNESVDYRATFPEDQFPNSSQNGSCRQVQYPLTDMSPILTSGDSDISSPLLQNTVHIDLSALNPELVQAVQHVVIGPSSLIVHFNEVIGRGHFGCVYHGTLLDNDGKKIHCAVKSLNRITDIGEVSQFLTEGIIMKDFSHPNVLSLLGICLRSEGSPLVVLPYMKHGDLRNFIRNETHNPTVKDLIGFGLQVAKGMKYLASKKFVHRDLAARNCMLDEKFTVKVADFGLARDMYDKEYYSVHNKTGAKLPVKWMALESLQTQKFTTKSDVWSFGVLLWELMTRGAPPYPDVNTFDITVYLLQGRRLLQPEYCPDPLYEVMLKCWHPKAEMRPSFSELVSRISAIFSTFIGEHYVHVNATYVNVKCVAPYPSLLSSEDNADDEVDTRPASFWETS
Protocol: The cellular activity of the compounds of the present invention may be determined by the following procedure. MKN45 cells were plated in Falcon 3072 96-well plates in growth media (RPMI, 10% FBS, 1% L-glutamine) at a density of 5000 cells/well and incubated at 37° C., 5% CO2 overnight. The following day, one-tenth volume of a 10× concentration of compounds was added to the wells in a 6-point dilution series. The dilutions series was composed of an initial 1:5 dilution in DMSO, followed by a 1:10 dilution in growth media, for a final DMSO concentration on cells of 0.5%. Control wells were treated with 0.5% DMSO. The typical range of dilution was 10 μM to 3 nM. Once compound was added to the cells, plates were incubated for four hours at 37° C., 5% CO2. Plates were then washed in PBS, and lysed in triton-based lysis buffer. Lysates were transferred to a precoated capture plate made by Biosource (Cat # KH00281). The phosphorylated c-MET levels were measured by incubating with a rabbit polyclonal antibody against phosphorylated c-MET ([pYpYpY1230/1234/1235]) followed by an anti-rabbit antibody conjugated to HRP. Signal was measured on a Wallac Victor plate reader at 450 nm. The DMSO signal of the control wells was defined as 100% and the percent of inhibition of phosphorylated c-Met was expressed as percent of control. IC50 values were determined from the percent of control data using a standard four-parameter model.
as §1, with “in a c-MET cell mechanistic” for “in a cell proliferation”, “c-MET cell mechanistic assay using” for “a cell proliferation assay using”, “in Table 3: A, IC50≦0.1” for “in Table 2: A, IC50≦0.1”, “of Table 3 corresponds to” for “of Table 2 corresponds to”

IC50 (MKN45 cells)	IC50 (phosphorylated c-MET)	Compound
100 to 1000 nM	≤ 100 nM	CC(c1c(Cl)ccc(F)c1Cl)c1c[nH]c2ncc(-c3cnn(C4CNC4)c3)cc12 (centres unmarked) [Example 53, 5-(1-Azetidin-3-yl-1H-pyrazol-4-yl)-3-[1-(2,6-dichloro-3-fluoro-phenyl)ethyl]-1H-pyrrolo[2,3-b]pyridine]
≤ 100 nM	≤ 100 nM	C[C@H](c1c(Cl)ccc(F)c1Cl)c1c[nH]c2ncc(-c3cnn(C4CCN(S(C)(=O)=O)CC4)c3)cc12 [Example 73, 3-[(S)-1-(2,6-Dichloro-3-fluorophenyl)ethyl]-5-[1-(1-methane-sulfonylpiperidin-4-yl)-1H-pyrazol-4-yl]-1H-pyrrolo[2,3-b]pyridine]
≤ 100 nM	≤ 100 nM	CC(c1c(Cl)ccc(F)c1Cl)c1c[nH]c2ncc(-c3cnn(C4CCC(=O)CC4)c3)cc12 (centres unmarked) [Example 89, 4-(4-{3-[1-(2,6-Dichloro-3-fluorophenyl)ethyl]-1H-pyrrolo[2,3-b]pyridin-5-yl}-pyrazol-1-yl)cyclohexanone]
≤ 100 nM	100 to 1000 nM	CC(c1c(Cl)ccc(F)c1Cl)c1c[nH]c2ncc(-c3cnn(C4CCN(C(N)=O)CC4)c3)cc12 (centres unmarked) [Example 49, 4-(4-{3-[1-(2,6-Dichloro-3-fluorophenyl)ethyl]-1H-pyrrolo[2,3-b]pyridin-5-yl}-pyrazol-1-yl)-piperidine-1-carboxamide]
100 to 1000 nM	≤ 100 nM	CC(c1c(Cl)ccc(F)c1Cl)c1c[nH]c2ncc(-c3cnn(C4CN(S(C)(=O)=O)C4)c3)cc12 (centres unmarked) [Example 57, 3-[1-(2,6-Dichloro-3-fluorophenyl)-ethyl]-5-[1-(1-methanesulfonylazetidin-3-yl)-1H-pyrazol-4-yl]-1H-pyrrolo[2,3-b]pyridine]
≤ 100 nM	≤ 100 nM	CC(c1c(Cl)ccc(F)c1Cl)c1c[nH]c2ncc(-c3cnn(C4CCN(C(=O)N(C)C)CC4)c3)cc12 (centres unmarked) [Example 28, 4-(4-{3-[1-(2,6-Dichloro-3-fluorophenyl)ethyl]-1H-pyrrolo[2,3-b]pyridin-5-yl}-pyrazol-1-yl)-piperidine-1-carboxylic acid dimethylamide]
≤ 100 nM	≤ 100 nM	CC(c1c(Cl)ccc(F)c1Cl)c1c[nH]c2ncc(-c3cnn(C4CN(C=O)C4)c3)cc12 (centres unmarked) [Example 55, 3-(4-{3-[1-(2,6-Dichloro-3-fluorophenyl)ethyl]-1H-pyrrolo[2,3-b]pyridin-5-yl}-pyrazol-1-yl)-azetidine-1-carbaldehyde]
≤ 100 nM	≤ 100 nM	C[C@H](c1c(Cl)ccc(F)c1Cl)c1c[nH]c2ncc(-c3cnn(C4CCN(C(N)=O)CC4)c3)cc12 [Example 72, 4-(4-{3-[(S)-1-(2,6-Dichloro-3-fluorophenyl)ethyl]-1H-pyrrolo[2,3-b]pyridin-5-yl}-pyrazol-1-yl)-piperidine-1-carboxamide]
100 to 1000 nM	≤ 100 nM	CC(c1c(Cl)ccc(F)c1Cl)c1c[nH]c2ncc(-c3cnn(C4CCN(S(C)(=O)=O)CC4)c3)cc12 (centres unmarked) [Example 50, 3-[1-(2,6-Dichloro-3-fluorophenyl)-ethyl]-5-[1-(1-methanesulfonyl-piperidin-4-yl)-1H-pyrazol-4-yl]-1H-pyrrolo[2,3-b]pyridine]
100 to 1000 nM	100 to 1000 nM	CC(c1c(Cl)ccc(F)c1Cl)c1c[nH]c2ncc(-c3cnn(C4CCN(CC(F)(F)F)CC4)c3)cc12 (centres unmarked) [Example 29, 3-[1-(2,6-Dichloro-3-fluorophenyl)ethyl]-5-{1-[1-(2,2,2-trifluoroethyl)-piperidin-4-yl]-1H-pyrazol-4-yl}-1H-pyrrolo[2,3-b]pyridine]

Further lines, the compound ahead of its results:

Compound	IC50 (MKN45 cells)	IC50 (phosphorylated c-MET)
CNC(=O)c1ccc(-c2cnc3[nH]cc(C(C)c4c(Cl)ccc(F)c4Cl)c3c2)cc1 (centres unmarked) [Example 5, 4-{3-[1-(2,6-Dichloro-3-fluorophenyl)ethyl]-1H-pyrrolo[2,3-b]pyridin-5-yl}-N-methylbenzamide]	100 to 1000 nM	100 to 1000 nM
CC(c1c(Cl)ccc(F)c1Cl)c1c[nH]c2ncc(-c3ccc(C(=O)NCCN4CCOCC4)cc3)cc12 (centres unmarked) [Example 7, 4-{3-[1-(2,6-Dichloro-3-fluorophenyl)ethyl]-1H-pyrrolo[2,3-b]pyridin-5-yl}-N-(2-morpholin-4-ylethyl)benzamide]	100 to 1000 nM	100 to 1000 nM
C[C@H](c1c(Cl)ccc(F)c1Cl)c1c[nH]c2ncc(-c3cnn(CC(=O)N4CCN(C)CC4)c3)cc12 [Example 79, 2-(4-{3-[(S)-1-(2,6-Dichloro-3-fluorophenyl)ethyl]-1H-pyrrolo[2,3-b]-pyridin-5-yl}-pyrazol-1-yl)-1-(4-methylpiperazin-1-yl)ethanone]	≤ 100 nM	≤ 100 nM
CC(c1c(Cl)ccc(F)c1Cl)c1c[nH]c2ncc(-c3cccnc3)cc12 (centres unmarked) [Example 88, 3-[1-(2,6-Dichloro-3-fluorophenyl)ethyl]-5-pyridin-3-yl-1H-pyrrolo[2,3-b]pyridine]	100 to 1000 nM	100 to 1000 nM
CC(c1c(Cl)ccc(F)c1Cl)c1c[nH]c2ncc(-c3cnn(C(C)(C)CO)c3)cc12 (centres unmarked) [Example 65, 2-(4-{3-[1-(2,6-Dichloro-3-fluorophenyl)ethyl]-1H-pyrrolo[2,3-b]pyridin-5-yl}-pyrazol-1-yl)-2-methylpropan-1-ol]	100 to 1000 nM	≤ 100 nM
CC(c1c(Cl)ccc(F)c1Cl)c1c[nH]c2ncc(-c3ccc(C(=O)N(C)C)cc3)cc12 (centres unmarked) [Example 3, 4-{3-[1-(2,6-Dichloro-3-fluorophenyl)ethyl]-1H-pyrrolo[2,3-b]pyridin-5-yl}-N,N-dimethylbenzamide]	100 to 1000 nM	100 to 1000 nM
CC(=O)N1CC=C(c2cnc3[nH]cc(C(C)c4c(Cl)ccc(F)c4Cl)c3c2)CC1 (centres unmarked) [Example 39, 1-(4-{3-[1-(2,6-Dichloro-3-fluorophenyl)ethyl]-1H-pyrrolo[2,3-b]pyridin-5-yl}-3,6-dihydro-2H-pyridin-1-yl)-ethanone]	100 to 1000 nM	100 to 1000 nM
CC(c1c(Cl)ccc(F)c1Cl)c1c[nH]c2ncc(C3=CCNCC3)cc12 (centres unmarked) [Example 32, 3-[1-(2,6-Dichloro-3-fluorophenyl)-ethyl]-5-(1,2,3,6-tetrahydropyridin-4-yl)-1H-pyrrolo[2,3-b]pyridine]	100 to 1000 nM	100 to 1000 nM
CC(c1c(Cl)ccc(F)c1Cl)c1c[nH]c2ncc(-c3cnn(C(C)(C)C(=O)N(C)C)c3)cc12 (centres unmarked) [Example 63, 2-(4-{3-[1-(2,6-Dichloro-3-fluorophenyl)ethyl]-1H-pyrrolo[2,3-b]pyridin-5-yl}-pyrazol-1-yl)-N,N-dimethylisobutyramide]	100 to 1000 nM	≤ 100 nM
C[C@H](c1c(Cl)ccc(F)c1Cl)c1c[nH]c2ncc(-c3cnn(C[C@H](O)CO)c3)cc12 [Example 90, (S)-3-(4-{3-[(S)-1-(2,6-Dichloro-3-fluorophenyl)ethyl]-1H-pyrrolo[2,3-b]pyridin-5-yl}-pyrazol-1-yl)-propane-1,2-diol]	≤ 100 nM	≤ 100 nM
CC(c1c(Cl)ccc(F)c1Cl)c1c[nH]c2ncc(-c3cnn(C(C)C)c3)cc12 (centres unmarked) [Example 30, 3-[1-(2,6-Dichloro-3-fluorophenyl)ethyl]-5-(1-isopropyl-1H-pyrazol-4-yl)-1H-pyrrolo[2,3-b]pyridine]	100 to 1000 nM	≤ 100 nM
CC(c1c(Cl)ccc(F)c1Cl)c1c[nH]c2ncc(-c3cnn(C(C)(C)C(N)=O)c3)cc12 (centres unmarked) [Example 64, 2-(4-{3-[1-(2,6-Dichloro-3-fluorophenyl)ethyl]-1H-pyrrolo[2,3-b]pyridin-5-yl}-pyrazol-1-yl)-isobutyramide]	100 to 1000 nM	≤ 100 nM
